System: H1N1 (influenza A/New Caledonia/20/99)
Experiment: Antiviral effect on A549 cells infected with H1N1
Format: cell-based, H1N1 A/New Caledonia/20/99 virus
Conditions: Influenza A virus, MOI 0.1, 48 h post-infection, MUNANA neuraminidase readout
Procedure: The antiviral effect of the compounds of the invention have been tested on A549 cell lines infected with H1N1 (influenza A/New Caledonia/20/99).
Human A549 cells (80,000 cells/well in a 96 well plate) were treated with a range of concentration of test compounds and immediately infected by H1N1 A/New Caledonia/20/99 virus (clinical isolate) at MOI of 0.1 in DMEM/1% Penicillin/streptomycin supplemented with […] TPCK trypsin (Sigma) and incubated at 37° C. in 5% CO2. 48 h post-infection, supernatants (25 μl) were collected and transferred into a 96-well black flat-bottom plate, mixed with 25 μl PBS with Ca++/Mg++ (Thermo Fisher) and 50 μl of 2′-(4-Methylumbelliferyl)-ax-D-N-acetylneuraminic acid sodium salt hydrate stock-solution (20 μM, MUNANA, Sigma). Plates were incubated 1h at 37° C. and reaction is stopped by adding 100 μl of Stop Solution (glycine 0.1 M pH10.7/25% ethanol). The amount of fluorescent product released by MUNANA hydrolysis (4-MU) was measured in a Tecan spectrophotometer with excitation and emission wavelengths of 365 and 450 nm respectively.

Row | Structure (SMILES) | IC50 [nM]
1 | COc1ccc(C(=O)Nc2scc(-c3ccccc3)c2C(=O)O)cc1OC [Compound #46, 2-[(3,4-Dimethoxybenzoyl)amino]-4-phenyl-thiophene-3-carboxylic acid] | 9650
2 | Cc1sc(NC(=O)c2ccccc2)c(C(=O)O)c1-c1ccc(Cl)cc1 [Compound #4, 2-Benzamido-4-(4-chlorophenyl)-5-methyl-thiophene-3-carboxylic acid] | 170
3 | O=C(Nc1sc(Cl)c(C2CCCCC2)c1C(=O)O)c1ccc(N2CCOCC2)cc1 [Compound #15, 5-Chloro-4-cyclohexyl-2-[(4-morpholinobenzoyl)amino]thiophene-3-carboxylic acid] | 225
4 | O=C(Nc1scc(C2C3CCCCC32)c1C(=O)O)c1ccccc1 (centres unmarked) [Compound #37, 2-Benzamido-4-norcaran-7-yl-thiophene-3-carboxylic acid] | 1870
5 | Cc1sc(NC(=O)c2ccccc2)c(C(=O)O)c1C1CCCCC1 [Compound #27, 2-Benzamido-4-cyclohexyl-5-methyl-thiophene-3-carboxylic acid] | 880
6 | CC1(C)C(c2csc(NC(=O)c3ccccc3)c2C(=O)O)C1(C)C [Compound #39, 2-Benzamido-4-(2,2,3,3-tetramethylcyclopropyl)thiophene-3-carboxylic acid] | 2370
7 | O=C(Nc1sc(Cl)c(-c2ccc(Cl)c(F)c2)c1C(=O)O)c1ccccc1 [Compound #6, 2-Benzamido-5-chloro-4-(4-chloro-3-fluoro-phenyl)thiophene-3-carboxylic acid] | 247
8 | Cc1ccc(-c2c(Cl)sc(NC(=O)c3ccccc3)c2C(=O)O)cc1C [Compound #23, 2-Benzamido-5-chloro-4-(3,4-dimethylphenyl)thiophene-3-carboxylic acid] | 420
9 | O=C(Nc1sc(Cl)c(-c2ccccc2)c1C(=O)O)c1ccc(OC(F)F)cc1 [Compound #31, 5-Chloro-2-[[4-(difluoromethoxy)benzoyl]amino]-4-phenyl-thiophene-3-carboxylic acid] | 1370
10 | O=C(Nc1scc(C2CCCC2)c1C(=O)O)c1ccc(NCC2CCOCC2)cc1 [Compound #66, 4-Cyclopentyl-2-[[4-(tetrahydropyran-4-ylmethylamino)benzoyl]amino]thiophene-3-carboxylic acid] | 15
11 | O=C(Nc1scc(C2CC2)c1C(=O)O)c1ccccc1 [Compound #87, 2-Benzamido-4-cyclopropyl-thiophene-3-carboxylic acid] | 810
12 | O=C(Nc1sc(Cl)c(C2CCCCC2)c1C(=O)O)c1ccccc1 [Compound #12, 2-Benzamido-5-chloro-4-cyclohexyl-thiophene-3-carboxylic acid] | 245
13 | COC1CN(c2ccc(C(=O)Nc3scc(C(C)(C)C)c3C(=O)O)cc2)C1 [Compound #92, 4-tert-Butyl-2-[[4-(3-methoxyazetidin-1-yl)benzoyl]amino]thiophene-3-carboxylic acid] | 260
14 | CC(C)Cc1csc(NC(=O)c2ccccc2)c1C(=O)O [Compound #96, 2-Benzamido-4-isobutyl-thiophene-3-carboxylic acid] | 610
15 | CC(C)(C)c1csc(NC(=O)c2ccc(NCC3CCCOC3)cc2)c1C(=O)O (centres unmarked) [Compound #119, 4-tert-Butyl-2-[[4-(tetrahydropyran-3-ylmethylamino)benzoyl]amino]thiophene-3-carboxylic acid] | 100
16 | Cc1sc(NC(=O)c2ccc(OC(F)F)cc2)c(C(=O)O)c1-c1ccc(Cl)cc1 [Compound #5, 4-(4-Chlorophenyl)-2-[[4-(difluoromethoxy)benzoyl]amino]-5-methyl-thiophene-3-carboxylic acid] | 260
17 | COCCNc1ccc(C(=O)Nc2scc(C3CCCC3)c2C(=O)O)cc1 [Compound #61, 4-Cyclopentyl-2-[[4-(2-methoxyethylamino)benzoyl]amino]thiophene-3-carboxylic acid] | 100
18 | O=C(Nc1sc(C2CCCCC2)cc1C(=O)O)c1ccc(OC(F)F)cc1 [Compound #41, 5-Cyclohexyl-2-[[4-(difluoromethoxy)benzoyl]amino]thiophene-3-carboxylic acid] | 2570
19 | CCOC1CN(c2ccc(C(=O)Nc3scc(C(C)(C)C)c3C(=O)O)cc2)C1 [Compound #104, 4-tert-Butyl-2-[[4-(3-ethoxyazetidin-1-yl)benzoyl]amino]thiophene-3-carboxylic acid] | 240
20 | CC(C)(C)[C@H]1CC[C@@H](c2csc(NC(=O)c3ccccc3)c2C(=O)O)CC1 [Compound #54, 2-Benzamido-4-(cis-4-tert-butylcyclohexyl)thiophene-3-carboxylic acid] | 460
21 | CC(C)(C)c1csc(NC(=O)c2cccc(NCC3CCOCC3)c2)c1C(=O)O [Compound #110, 4-tert-Butyl-2-[[3-(tetrahydropyran-4-ylmethylamino)benzoyl]amino]thiophene-3-carboxylic acid] | 820

Row | Structure (SMILES) | IC50 [nM]
22 | O=C(Nc1scc(C2CCCC2)c1C(=O)O)c1cccc(N2CCOCC2)c1 [Compound #71, 4-Cyclopentyl-2-[(3-morpholinobenzoyl)amino]thiophene-3-carboxylic acid] | 130
23 | O=C(Nc1scc(-c2ccccc2Cl)c1C(=O)O)c1ccccc1 [Compound #44, 2-Benzamido-4-(2-chlorophenyl)thiophene-3-carboxylic acid] | 6650
24 | CN(CC1CCOCC1)c1ccc(C(=O)Nc2scc(C(C)(C)C)c2C(=O)O)cc1 [Compound #120, 4-tert-Butyl-2-[[4-[methyl(tetrahydropyran-4-ylmethyl)amino]benzoyl]amino]thiophene-3-carboxylic acid] | 100
25 | CC(C)(C)c1csc(NC(=O)c2ccc(NC3CCOCC3)cc2)c1C(=O)O [Compound #105, 4-tert-Butyl-2-[[4-(tetrahydropyran-4-ylamino)benzoyl]amino]thiophene-3-carboxylic acid] | 680
26 | COCCNc1ccc(C(=O)Nc2scc(C(C)(C)C)c2C(=O)O)cc1 [Compound #103, 4-tert-Butyl-2-[[4-(2-methoxyethylamino)benzoyl]amino]thiophene-3-carboxylic acid] | 460
27 | COc1ccc(C(=O)Nc2scc(C3CCCCC3)c2C(=O)O)cc1OC [Compound #25, 4-Cyclohexyl-2-[(3,4-dimethoxybenzoyl)amino]thiophene-3-carboxylic acid] | 729
28 | O=C(Nc1scc(-c2ccc(C(F)(F)F)cc2)c1C(=O)O)c1ccccc1 [Compound #20, 2-Benzamido-4-[4-(trifluoromethyl)phenyl]thiophene-3-carboxylic acid] | 310
29 | O=C(Nc1scc(C2CCc3ccccc3O2)c1C(=O)O)c1ccccc1 (centres unmarked) [Compound #85, 2-Benzamido-4-chroman-2-yl-thiophene-3-carboxylic acid] | 506
30 | Cc1ccccc1C(=O)Nc1sc(Cl)c(C2CCCCC2)c1C(=O)O [Compound #14, 5-Chloro-4-cyclohexyl-2-[(2-methylbenzoyl)amino]thiophene-3-carboxylic acid] | 500
31 | COCCNc1ccc(C(=O)Nc2scc(C3(C)CC3)c2C(=O)O)cc1 [Compound #108, 2-[[4-(2-Methoxyethylamino)benzoyl]amino]-4-(1-methylcyclopropyl)thiophene-3-carboxylic acid] | 560
32 | O=C(Nc1scc(C2CCC2)c1C(=O)O)c1ccccc1 [Compound #98, 2-Benzamido-4-cyclobutyl-thiophene-3-carboxylic acid] | 610
33 | COc1ccc(-c2csc(NC(=O)c3ccccc3)c2C(=O)O)cc1 [Compound #38, 2-Benzamido-4-(4-methoxyphenyl)thiophene-3-carboxylic acid] | 1870
34 | Cc1sc(NC(=O)c2ccccc2)c(C(=O)O)c1-c1ccccc1 [Compound #34, 2-Benzamido-5-methyl-4-phenyl-thiophene-3-carboxylic acid] | 1480
35 | COCCOc1ccc(C(=O)Nc2scc(C(C)(C)C)c2C(=O)O)cc1 [Compound #116, 4-tert-Butyl-2-[[4-(2-methoxyethoxy)benzoyl]amino]thiophene-3-carboxylic acid] | 10
36 | Cc1sc(NC(=O)c2ccc(OC(F)F)cc2)c(C(=O)O)c1-c1ccccc1 [Compound #30, 2-[[4-(Difluoromethoxy)benzoyl]amino]-5-methyl-4-phenyl-thiophene-3-carboxylic acid] | 1370
37 | O=C(Nc1scc(C2CCC2)c1C(=O)O)c1ccc(NCC2CCOCC2)cc1 [Compound #99, 4-Cyclobutyl-2-[[4-(tetrahydropyran-4-ylmethylamino)benzoyl]amino]thiophene-3-carboxylic acid] | 14
38 | O=C(Nc1scc(C2COc3ccccc3C2)c1C(=O)O)c1ccccc1 (centres unmarked) [Compound #84, 2-Benzamido-4-chroman-3-yl-thiophene-3-carboxylic acid] | 287
39 | O=C(Nc1scc(C2CC(F)(F)C2)c1C(=O)O)c1ccccc1 [Compound #35, 2-Benzamido-4-(3,3-difluorocyclobutyl)thiophene-3-carboxylic acid] | 1670
40 | O=C(Nc1sc(Cl)c(-c2ccccc2)c1C(=O)O)c1ccccc1 [Compound #33, 2-Benzamido-5-chloro-4-phenyl-thiophene-3-carboxylic acid] | 1470
41 | O=C(Nc1scc(C2CCCC2)c1C(=O)O)c1ccc(NC2CCOCC2)cc1 [Compound #60, 4-Cyclopentyl-2-[[4-(tetrahydropyran-4-ylamino)benzoyl]amino]thiophene-3-carboxylic acid] | 47

From patent US11840527B2, “Non-fused thiophene derivatives and their uses” (ENYO PHARMA, priority 2018, dated 2023)
